Results published in article PMC4398456, “Evidence for a Novel Mechanism of Antimicrobial Action of a Cyclic R-,W-Rich Hexapeptide” (PLoS ONE, 2015).
Converted amounts (≈) assume the structure as drawn. Residues, ends and D or L forms follow the SMILES beside them.

Tests used:
mammalian cells = settings: cited from earlier work
Excerpt: The structure-activity-relationship of small cyclic R-,W-rich peptides is well characterised. […] With cationic charge and high amphipathicity the cyclic peptide features the structural determinants for membrane activity.

B. subtilis 168 = test: Cardiolipin staining with NAO, fluorescence microscopy; format: cell-based; settings: 500 nM NAO 60 min, then 12 μM peptide 30 min, room temperature; 520 and 640 nm
Method: Cells were first incubated with the dye for 60 minutes in the dark, at room temperature at 600 rpm (ensuring sufficient aeration). Afterwards, cWFW was added at a final concentration of 12 μM and co-incubated with NAO for another 30 minutes under the same conditions.
Specific staining of CL with NAO has been shown before and is neither influenced by fixation nor depolarisation of the membrane. The emission shift from green to red fluorescence (513 nm to 640 nm) was reported to be exclusive for binding to CL and is caused by narrow stacking of dye molecules. Images were captured using a Zeiss Axiovert M200 inverted fluorescence microscope and an LSM 510 ConfoCor2 (Germany) with plan-apochromat 63, 100×/1.4 objective, respectively, and processed with ImageJ.

ITC binding to LUVs = settings: 25°C; for K 0 (hydrophobic partition coefficient): phosphate buffer pH 7.4, surface partition model; for ΔG°: calculated as -RT ln(55.5 M × K 0); for -TΔS°: from Gibbs-Helmholtz equation
Excerpt: (§1) Large unilamellar vesicles (LUVs) were used for isothermal titration calorimetry studies and prepared as described before. […] As CL potentially carries two negative charges it was applied at half POPG concentrations to give liposomes with identical surface charge. Subsequently, chloroform was evaporated under nitrogen stream and obtained lipid films were dried under high vacuum for several hours and rehydrated in phosphate buffer by thorough vortexing. The solution was heated 2–3 times in a water bath to 40°C to facilitate resuspension. POPE-LUVs were obtained after 35-fold extrusion through two stacked polycarbonate membranes (100 nm pore size) using a mini extruder (Avestin, Switzerland). The procedure gives vesicles with a diameter of 90–120 nm as determined with dynamic light scattering (DLS) performed on a Zetasizer Nano ZS ZEN 3600 (Malvern Instruments, UK). Large liposomes for dye release experiments were prepared with a solution of 80 mM calcein in 10 mM Tris buffer, 0.1 mM EDTA, pH 7.4 and treated to remove non-incorporated dye as described before.
High-sensitivity isothermal titration calorimetry (ITC) experiments to characterise peptide interaction with model membranes were performed at 25°C on a VP-ITC instrument (MicroCall, Malvern Instruments, UK). Binding data were generated as described before. Prior to use, solutions were gently degassed under vacuum. 10 μl aliquots of 5 to 10 mM lipid vesicles were titrated into a 40 μM peptide solution inside the calorimeter cell (1.4 ml) while the reaction mixture was continuously stirred at 307 rpm. Time intervals between injections were adjusted to 10 min which was sufficient for the heat signal to return to baseline level. Automated baseline adjustment and peak integration were accomplished with the public-domain software NITPIC [32].
Binding parameters, such as hydrophobic partition coefficient (K 0) and enthalpy of binding (ΔH°), were derived by applying a surface partition equilibrium under the specific condition that peptide adsorption is linearly related to the peptide concentration immediately above the membrane surface. This concentration in close proximity to the membrane is determined by electrostatic interactions and depends on the bulk concentration of peptide, peptide charge and membrane surface potential. Negatively charged lipid layers attract cationic peptides. Consequently, the membrane surface concentration is enhanced compared to that in the bulk solution. After binding of cationic peptides to an electrically neutral membrane it becomes positively charged which results in a repulsion of further peptides from the membrane surface. Using the Gouy—Chapman theory which accounts for electrostatic effects, it is possible to calculate the peptide surface concentration and to determine the partition coefficient K 0 [33]. Nonlinear least-squares data fitting was performed with Excel 2010 (Microsoft) using the Solver add-in (Frontline Systems). The Gibbs free energy was calculated according to ΔG° = -RT ln(55.5 M × K 0), where 55.5 M is the molar concentration of water in the aqueous phase. Finally, the entropic contribution to membrane partitioning,-TΔS°, was derived from the Gibbs-Helmholtz equation, ΔG° = ΔH°-TΔS°.

[1] = Calcein dye release from liposomes; format: biochemical; settings: 10 μM peptide, 1 min, Tris buffer pH 7.4, room temperature; for permeabilisation (calcein dye release): fluorescence; for dye release: cardiolipin 40 mol%
Excerpt: as §1
Peptide-induced calcein release was monitored fluorimetrically by measuring the time-dependent decrease in self-quenching (ex 490 nm, em 514 nm) at room temperature on a LS 50B spectrofluorimeter (Perkin Elmer, Germany) as described before. Lipid concentration was 25 μM in Tris buffer (10 mM Tris, 154 mM NaCl, pH 7.4) and peptide concentrations ranged from 1 to 200 μM. The fluorescence intensity corresponding to 100% release was determined by addition of a 10% Triton X-100 solution. In this study, calcein release was analysed after 1 min of incubation with 10 μM peptide and 25 μM liposomal suspensions.

E. coli DH5α = settings: microdilution; reported before; cited from earlier work
B. subtilis DSM 347 = settings: microdilution; reported before; cited from earlier work
[2] = tested on: E. coli L-WF+ (cell wall-deficient L-form, W1655 F+); format: cell-based; settings: microdilution, 96-well, 0.05 to 100 μM peptide, BHI with supplements, OD550 0.4, 18 hours, 37°C; triplicates, at least three independent experiments
Method: (§2) For L-form bacteria BHI medium was supplemented with […] penicillin and additional 50 mg/ml sucrose and 30 mg/ml yeast extract in the case of B. subtilis L-170. L-form cells were cultivated as described above using flat bottom glass flasks and OD was measured at 550 nm (OD550 = 1 corresponds to 3.92 × 10^8 CFU/ml L-170 and 9.75 × 10^8 CFU/ml L-WF+).
(§3) To determine the minimal inhibitory peptide concentration (MIC) of bacterial growth we applied a microdilution technique as described previously. Briefly, the antimicrobial activity was tested against L-form bacteria in 96-well plates with final peptide concentrations ranging from 0.05 to 100 μM. Cultures were diluted to OD550 0.4 in BHI containing strain-specific supplements. Cells were grown for 18 hours at 37°C and 180 rpm. Peptide activity was tested in triplicates in at least three independent experiments.

[3] = tested on: B. subtilis L-170 (cell wall-deficient L-form); format: cell-based; settings: microdilution, 96-well, 0.05 to 100 μM peptide, BHI with supplements, OD550 0.4, 18 hours, 37°C; triplicates, at least three independent experiments
Method: as §2, §3

[4] = LUVs of POPC/CL (87.5/12.5 mol%)
[5] = LUVs of POPE/CL (87.5/12.5 mol%)

SMILES: N=C(N)NCCC[C@@H]1NC(=O)[C@H](CCCNC(=N)N)NC(=O)[C@H](Cc2c[nH]c3ccccc23)NC(=O)[C@H](Cc2ccccc2)NC(=O)[C@H](Cc2c[nH]c3ccccc23)NC(=O)[C@H](CCCNC(=N)N)NC1=O [cWFW] (cyclo(FWRRRW))
- toxicity towards mammalian cells (mammalian cells): no toxicity
- effect on NAO fluorescence (cardiolipin staining) (B. subtilis 168): significant decrease in NAO fluorescence intensity at both wavelengths
- ΔH° (ITC binding to LUVs; 5 mM LUVs into 40 μM peptide, γ = 1): -2.87 kcal/mol
- K 0 (hydrophobic partition coefficient) (ITC binding to LUVs; 5 mM LUVs titrated into 40 μM peptide, γ = 1): 5.5e+07 M⁻¹
- ΔH° (ITC binding to LUVs; 10 mM LUVs into 40 μM peptide, γ = 0.5): -1.22 kcal/mol
- K 0 (hydrophobic partition coefficient) (ITC binding to LUVs; 10 mM LUVs titrated into 40 μM peptide, γ = 0.5): 3.7e+06 M⁻¹
- K 0 (hydrophobic partition coefficient) (ITC binding to LUVs; 5 to 10 mM LUVs titrated into 40 μM peptide, γ = 0.5): 1.4e+06 M⁻¹
- ΔH° (ITC binding to LUVs; LUVs into 40 μM peptide, γ = 0.5): -5.81 kcal/mol
- ΔG° (ITC binding to LUVs; [4]): -10.8 kcal/mol
- ΔG° (ITC binding to LUVs; [5]): -12.9 kcal/mol
- ΔG° (ITC binding to LUVs; LUVs of POPE/POPG (75/25 mol%)): -11.3 kcal/mol
- -TΔS° (ITC binding to LUVs; [4]): -4.95 kcal/mol
- -TΔS° (ITC binding to LUVs; [5]): -10.1 kcal/mol
- -TΔS° (ITC binding to LUVs; LUVs of POPE/POPG (75/25 mol%)): -10.1 kcal/mol
- peptide-induced dye release ([1]; CL content of 12.5% (matrix lipid not restated, follows sentence on POPE systems), 25 μM lipid): 18%
- permeabilisation (calcein dye release) ([1]; PC/7.5% CL, 25 μM lipid): 15%
- permeabilisation (calcein dye release) ([1]; PC/25% PG, 25 μM lipid): 8%
- permeabilisation (calcein dye release) ([1]; PE/7.5% CL, 25 μM lipid): 8%
- permeabilisation (calcein dye release) ([1]; PE/25%PG, 25 μM lipid (peptide/lipid 1/2.5)): 2%
- dye release ([1]; POPC-based LUVs, 25 μM lipid): more than 70%
- dye release ([1]; POPE-based LUVs, 25 μM lipid): more than 70%
- MIC E. coli DH5α (E. coli DH5α): 3 µM (≈ 2.96 µg/mL)
- MIC B. subtilis DSM 347 (B. subtilis DSM 347): 3 µM (≈ 2.96 µg/mL)
- MIC E. coli L-WF+ [2]: 12 µM (≈ 11.9 µg/mL)
- MIC B. subtilis L-170 [3]: 6 µM (≈ 5.93 µg/mL)
